Experiments:
[1] = target: T1, PGK1 (Homo sapiens, UniProt P00558); assay: Recombinant PGK1 assay (GAPDH/PGK1 coupled assay, NADH absorbance); format: biochemical; conditions: absorbance 340 nm
T1 sequence (P00558 1-417): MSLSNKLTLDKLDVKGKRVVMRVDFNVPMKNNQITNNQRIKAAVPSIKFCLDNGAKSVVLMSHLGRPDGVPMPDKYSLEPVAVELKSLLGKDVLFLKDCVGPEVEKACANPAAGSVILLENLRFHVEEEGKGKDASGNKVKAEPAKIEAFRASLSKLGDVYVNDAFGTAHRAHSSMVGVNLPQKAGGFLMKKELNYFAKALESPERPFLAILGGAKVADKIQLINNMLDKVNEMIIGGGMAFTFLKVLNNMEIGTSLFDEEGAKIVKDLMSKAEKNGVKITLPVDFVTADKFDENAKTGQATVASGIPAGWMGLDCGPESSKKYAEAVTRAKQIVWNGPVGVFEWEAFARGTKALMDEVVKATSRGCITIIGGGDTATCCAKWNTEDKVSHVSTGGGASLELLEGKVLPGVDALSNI
Description: FIG. 6A-D. CBR-470-1 inhibits PGK1 in vitro and in situ. (a) Schematic of the GAPDH/PGK1 coupled assay. Pre-equilibration of the GAPDH reaction (top left) results in an NAD^+/NADH equilibrium, which upon addition of PGK1 and ADP pulls the reaction to the right producing more NADH. Monitoring NADH absorbance after addition of PGK1 (bottom right) can be used to monitor PGK1 activity in the forward direction (right). […] (c, d) Relative level of central metabolites in IMR32 cells treated with viral knockdown of PGK1 for 72 hours (c) (n=4) and with CBR-470-1 relative DMSO alone for the indicative times (d) (n=3). Each metabolite is normalized to the control condition at each time point. Data shown represent mean±SEM of biologically independent samples.
Recombinant PGK1 assay. PGK1 enzymatic activity in the forward direction was measured with a coupled enzymatic assay^34. Three PGK1 conditions were prepared by dissolving recombinant PGK1 in potassium phosphate buffer (10 mM KH2PO4, 10 mM MgSO4, pH 7.0), and transferring the aliquots of PGK1 solution to the microtubes being treated with same amount of DMSO and indicated concentrations of CBR-470-1. Final concentration of PGK1 is 20 ng/mL and DMSO is 1% for each sample. […] The change in absorbance at 340 nm at room temperature was measured every 20 seconds for 45 minutes, by Tecan Infinite M200 plate reader. […]

[2] = system: IMR32 cells; assay: Quantitative metabolomic profiling of IMR32 cells; format: cell-based
Procedure: Quantitative Metabolomic Profiling. For polar metabolite profiling experiments, cells were grown in 15 cm plates and cultured in RPMI supplemented with 10% FBS, 2 mM L-glutamine and 1% P/S prior to media replacement containing either vehicle (DMSO) or the indicated dose of CBR-470-1. Following incubation for the appropriate time, cells were scraped into ice-cold PBS and isolated by centrifugation at 1,400 g at 4° C. Cell pellets were resuspended in 300 μl of an 80:20 mixture of cold MeOH/H2O, an internal standard was added (10 nmol d3-serine; Sigma Aldrich), and the suspension was sonicated (Fisher Scientific FB-505) for 5 seconds followed by a 10 minute centrifugation at 16,000 g. […] Metabolite peak transitions and retention times are listed in Table 2 and were confirmed by running standards for measured glycolytic, PPP, CAC and co-factor metabolites. 2-phosphoglycerate and 3-phosphoglycerate isomers were quantified in aggregate (2PG/3PG). Relative metabolite abundance was quantified by integrated peak area for the given MRM-transition, and all metabolite levels were normalized to internal standard extracted ion intensity values for d3-serine. These parameters were used to quantify all metabolites, with the exception of 1,3-BPG and MGx, which required chemical derivitization to stable intermediates prior to LC-MS/MS quantification, as previously reported^20, 33. […]

[3] = system: IMR32 cells; assay: IMR32 viability with co-treatments (cell titer glo); format: cell-based; conditions: IMR32 cells, 48 hrs, combinations of doses with BBGC
Procedure: FIG. 38. PGK1 toxicity can be rescued with metabolites that are involved with GSH biosynthesis and quenching of reactive oxygen species and methylglyoxal. […] IMR32 cells treated for 48 hr in presence of indicated drugs.
PGK1 toxicity can be rescued with metabolites that are involved with GSH biosynthesis and quenching of reactive oxygen species and methylglyoxal.
IMR32 cells were treated for 48 hrs with CBR-470-1 and/or BBGC at combinations of doses in a synergy matrix (FIG. 41). […] Viability measured using cell titer glo assay (Promega). Viability decreased at higher concentrations of CBR-470-1 and BBGC start at 5 uM. […] Sensitivity of cell lines to direct inhibition of GLO1 (which detoxifies MGO) is generally correlated with sensitivity to PGK1 inhibition with CBR-470-1-consistent with MGO buildup playing a role in toxicity.

[4] = system: HCT116; assay: Viability of HCT116 with genetic manipulation of GLO1 and PGK1; format: cell-based

For `CC(C)CN[C@H]1CS(=O)(=O)C[C@@H]1S(=O)(=O)c1ccc(Cl)cc1` [CBR-470-1], the “PGK1-dependent activity and accumulation of NADH” value [1] was “significantly inhibits PGK1-dependent activity and accumulation of NADH”, the “downstream metabolites (3PG, lactate)” value [2] was “depletion of downstream metabolites” and the “metabolite levels upstream of PGK1 (BPG, GAP)” value [2] was “rapid increase in metabolite levels upstream of PGK1”. For the same compound, the “viability in synergy matrix with BBGC” value [3] was “synergistic effects on viability rather than additivity”, the “viability sensitivity of PGK1 knockdown cells” value ([4]; HCT116, PGK1 knockdown) was “more sensitive to CBR-470-1 metabolic inhibition” and the “viability sensitivity of cells acclimated to low GLO1 levels” value ([4]; HCT116, low GLO1) was “resistance to CBR-470-1 metabolic inhibition”.

Source: patent publication US12048686B2, “Compositions and methods for activating NRF2-dependent gene expression” (The University of Chicago, priority 2018, dated 2024)
